In US20130109049A1, “Method of Establishing a Fungal Nail Infection” (NOVABIOTICS LIMITED, priority 2009, published 2013):

System: Trichophyton rubrum strain NCPF0118
Experiment: Ex vivo human nail fragment model, treatment of established infection (cfu recovered)
Format: cell-based
Method: For antifungal efficacy studies with human toe nails, a solution of 50% (w/v) PEG 8000 (Sigma-Aldrich; Cat No P2139) was prepared by autoclaving and then diluting with sterile 50% (w/v) urea solution (Sigma-Aldrich; Cat No 51457). This solution was mixed thoroughly by vortexing and allowed to stabilise at 50° C. for up to 2 h. After stabilisation, the temperature was allowed to drop to below 40° C. and a concentrated, filter-sterilised solution of Novexatin® (NP213), dissolved in deionised water was added. Final concentrations of PEG 8000 of 50% (w/v), urea of 0-20% (w/v) and Novexatin® (NP213) of 0-10% (w/v) were used in the experiments described below.
On arrival, the cultures were transferred to a Petri dish containing sterile Sabouraud Dextrose agar (Sigma-Aldrich; Cat No 84088, or equivalent) and grown for up to 7 d at 30° C. The resulting growth was scraped off and re-suspended in Sabouraud's liquid medium (Oxoid; Cat No CM 147, or equivalent) containing […] dimethyl sulfoxide (DMSO) as cryoprotectant to create a culture stock. The fungus was stored in 0.5 ml aliquots in 2 ml screw-capped polypropylene vials (Cryovials) at −80° C. Seven days prior to experimental use, 50 μl of the culture stock was used to inoculate a slope of Potato Dextrose agar (Merck; Cat No VM556130 609, or equivalent), which was incubated at 30° C. for up to 7 d. The surface of the resulting growth was gently perturbed in 3 ml of sterile distilled/deionised water. After filtration through 2 layers of sterile surgical gauze to remove debris and larger clumps of biomass, the absorbance of the resultant spore suspension was measured at 530 nm, then adjusted to the 0.5 MacFarland standard (OD approx. 0.15)^2.
Human toe nails were obtained from a podiatrist in Aberdeen following a successful application to the Grampian Local Research Ethics Committee. […] Large toe nails were cut into 4 pieces, each approximately 1 cm^2 in area, using nail clippers. Nails of normal thickness (≦2 mm) were chosen. The 4 fragments cut from each single nail were placed in quadrants marked on Petri-dishes containing phosphate buffered saline rendered solid with 1.2% (w/v) Technical Agar No. 3 (Oxoid; Cat No LP0013, or equivalent), subsequently referred to as PBS agar. The nail fragments were of irregular shape, so to ensure that each nail received the appropriate amount of the treatment solutions, the surface area was measured by photographing the nails over graph paper and determining the number of 1mm^2 squares covered by each nail. The thickness of the nails was measured with a micrometer and nails distributed among treatment groups, to avoid nail thickness providing an additional experimental variable.
Twenty four nail fragments from 6 whole large toenails were each inoculated with 10 μl of a spore suspension of T. rubrum NCPF0118 which was prepared as described above. The inoculum was applied to the ventral side of the nail (i.e. the side next to the skin in situ). The nails were incubated for 7 d at 30° C. to allow the fungus to infect the nail tissue. After this pre-incubation period, 12 of the fragments were assigned to each of 2 different treatment protocols, involving daily treatment with 2 different vehicle solutions, each containing a control and 3 different concentrations of Novexatin® (NP213). These vehicle solutions were: 50% (w/v) PEG 8000, and 50% (w/v) PEG 8000 plus 20% (w/v) urea. The concentrations of Novexatin® (NP213) studied were 0%, 1%, 5% and 10% (w/v). The solutions were applied at a volume of 10 μl/cm^2, corrected for the surface area of the different nail fragments as described above. The applied solution was spread over the dorsal side of the nail, to mimic the intended clinical treatment and the ventral side of the nail rested on the agar surface. Each time the nails were treated, they were transferred to a new sterile Petri dish containing PBS agar to minimise any build-up of fungal growth on the agar. Nail fragments were treated daily for 28 days. […]

[1] = Experiment 1, 5% (w/v), absence of urea, daily 28 days

Which “killing of T. rubrum NCPF0118 on nail fragments (dose dependence)” value (Experiment 1, 0%, 1%, 5%, 10% (w/v) in 50% PEG 8000 with or without 20% urea, daily for 28 days) does the source give for “7 to 200-mer (SEQ ID NO: 3) polyarginine [Novexatin® (NP213)]” here?
The value was “dose-dependent”.

And the “reduction in fungal survival” value (Experiment 1, 1% (w/v), daily 28 days)?
Its value is “approximately 1 log10”.

What about the “fungi isolated with 20% (w/v) urea added to the vehicle, versus vehicle alone” value (Experiment 1, 1% (w/v), not statistically significant) of the same substance?
The value was “fewer fungi than in vehicle alone”.

What about the “fungal colonies isolated from nail fragments” value (Experiment 1, 5% (w/v) with 20% (w/v) urea in vehicle, daily 28 days) of the same substance?
The value was “no colonies were isolated”.

And the “decrease in survival of the fungus compared to controls” value [1]?
The value was “approximately 3 log10”.

What about the “fungal colonies isolated from nail fragments” value [1] of the same substance?
The value was “a small number of colonies were detected”.

What about the “recoverable fungal growth after treatment” value (Experiment 5, 10% (w/v), approximately 100×MIC100, 14 d or 28 d, daily) of the same substance?
The value was “no recoverable fungal growth”.
